Patent US6770122B2, “Copper deposition using copper formate complexes” (E. I. du Pont de Nemours and Company, priority 2001, dated 2004)

Tests used:
[1] = Description: A common technique used in dissolving metal complexes in supercritical carbon dioxide is to add a co-solvent (Cross et al.). The requirements of a co-solvent have been defined (Cross et al.). Methanol and other alcohols are commonly used. […] In these measurements, the complex was dissolved in 0.25-1 mL of methanol or 1-butanol and then shaken with 5-10 mL hexane; solubility was indicated by formation of a homogeneous blue solution. Alcohols such as methanol and 1-butanol are totally miscible with supercritical carbon dioxide at ambient temperatures and high pressure (Cross et al). Between 2 to 5% cosolvent is typically used in order to retain supercritical properties of the solvent at reasonable temperatures and pressures.
[2] = Solubility in hexane, judged by blue colour of the solution; details: no co-solvent, qualitative

Which “solubility in hexane with co-solvent (or supercritical carbon dioxide with co-solvent)” value (from here on “solubility in hexane with co-solvent”) [1] does the source give for CCCCC(CC)Cn1cc(C)nc1CC (centres unmarked) [1-(2-ethylhexyl)-2-ethyl-4-methylimidazole] here?
Its value is 1-(2-ethylhexyl)-2-ethyl-4-methyl-.

Which “solubility in hexane with co-solvent” value [1] does the source give for CCCCC(CC)Cn1cccn1 (centres unmarked) [1-(2-ethylhexyl)pyrazole] here?
Its value is 1-(2-ethylhexyl)pyrazole.

With CC(C)(C)c1ccncc1 [4-t-butylpyridine] as the compound, how does the “solubility in hexane with co-solvent” value [1] read?
Its value is 4-t-butylpyridine.

Which “solubility in hexane (blue color of solution)” value [2] does the source give for “Cu(1-octyl-4-ethyl-2-methylimidazole)2(HCOO)2H2O” here?
The value was “dissolves in hexane to yield a blue solution”.

And the “solubility in hexane (blue color of solution)” value ([2]; listed as Cu(1-octyl-4-ethyl-2-methylimidazole)2(HCOO)2H2O)?
Its value is “soluble in hexane”.
